Columns and labels:
Type in all cases: in vivo
[1] = tested on: ABUTH (Abutilon theophrasti); assay: pre-emergence greenhouse test; conditions: pre-emergence, 7.5 g ai/ha
Source text: (§1) For the pre-emergence treatment, directly after sowing the active compounds, which had been suspended or emulsified in water, were applied by means of finely distributed nozzles. The containers were irrigated gently to promote germination and growth and subsequently covered with transparent plastic hoods until plant had rooted. This cover caused uniform germination of the tests plants, unless this was adversely affected by active compounds.
(§2) The respective herbicides A and/or safener were formulated as 10% by weight strength suspension concentrate and introduced to the spray liquor with the amount of solvent system used for applying the active compound. Herbicide B and/or safener were used as commercially available formulations and introduced to the spray liquor with the amount of solvent system used for applying the active compound. In the examples, the solvent used was water.
(§3) The test period extended over 20 days. During this time, the plants were tended, and their response to the treatments with active compound was evaluated.
(§4) In the following experiments, the herbicidal activity for the individual herbicide compounds (solo application) and of the mixture was assessed 8 days after treatment (8 DAT) and/or 20 days after treatment (20 DAT).
(§5) The evaluation for the damage caused by the chemical compositions was carried out using a scale from 0 to 100%, compared to the untreated control plants. Here, 0 means no damage and 100 means complete destruction of the plants.

[2] = tested on: ALOMY (Alopecurus myosuroides); assay: pre-emergence greenhouse test; conditions: for observed activity in % destruction: pre-emergence, 15 g ai/ha
Source text: as §1, §2, §3, §4, §5

[3] = tested on: AMARE (Amaranthus retroflexus); assay: pre-emergence greenhouse test; conditions: pre-emergence
Source text: as §1, §2, §3, §4, §5

[4] = tested on: BRAPL (Brachiaria plantaginea); assay: pre-emergence greenhouse test; conditions: for observed activity in % destruction: pre-emergence, 15 g ai/ha
Source text: as §1, §2, §3, §4, §5

[5] = tested on: COMBE (Commelina benghalensis); assay: pre-emergence greenhouse test; conditions: for observed activity in % destruction: pre-emergence
Source text: as §1, §2, §3, §4, §5

[6] = tested on: ECHCG (Echinochloa crus-galli); assay: pre-emergence greenhouse test; conditions: for observed activity in % destruction: pre-emergence
Source text: as §1, §2, §3, §4, §5

[7] = tested on: ERBVI; assay: pre-emergence greenhouse test; conditions: ERBVI pre-emergence 15 g ai/ha
Source text: as §1, §2, §3, §4, §5

[8] = tested on: LOLMU (Lolium multiflorum); assay: pre-emergence greenhouse test; conditions: for observed activity in % destruction: pre-emergence
Source text: as §1, §2, §3, §4, §5

[9] = tested on: PANDI (Panicum dichotomiflorum); assay: pre-emergence greenhouse test; conditions: pre-emergence
Source text: as §1, §2, §3, §4, §5

[10] = tested on: PHBPU (Ipomoea purpurea); assay: pre-emergence greenhouse test; conditions: for observed activity in % destruction: pre-emergence, 3.75 g ai/ha
Source text: as §1, §2, §3, §4, §5

[11] = tested on: SETVI (Setaria viridis); assay: pre-emergence greenhouse test
Source text: as §1, §2, §3, §4, §5

[12] = tested on: SOLNI (Solanum nigrum); assay: pre-emergence greenhouse test; conditions: for observed activity in % destruction: pre-emergence
Source text: as §1, §2, §3, §4, §5

[13] = tested on: ALOMY (Alopecurus myosuroides); assay: post-emergence greenhouse test; conditions: 3.75 g ai/ha
Source text: (§6) For the post-emergence treatment, the test plants were first grown to a height of 3 to 20 cm, depending on the plant habit, and only then treated. Here, the herbicidal compositions were suspended or emulsified in water as distribution medium and sprayed using finely distributing nozzles.
as §2, §3, §4, §5

[14] = tested on: CHEAL (Chenopodium album); assay: post-emergence greenhouse test; conditions: 15 g ai/ha
Source text: as §6, §2, §3, §4, §5

[15] = tested on: MERAN (Mercurialis annua); assay: post-emergence greenhouse test; conditions: 7.5 g ai/ha
Source text: as §6, §2, §3, §4, §5

**Q.** `Cc1cnc(C2=NC(=O)C(C)(C(C)C)N2)c(C(=O)O)c1` (stereo not drawn) [imazapic] was tested. Which “observed activity in % destruction” value ([1]; 8 DAT) did it give?
**A.** Its value is 20%.

**Q.** And the “observed activity in % destruction” value ([1]; 20 DAT)?
**A.** Its value is 75%.

**Q.** And the “observed % destruction 20 DAT” value ([2]; ALOMY pre-emergence 15 g ai/ha)?
**A.** Its value is 80%.

**Q.** And the “observed activity in % destruction” value ([2]; 8 DAT)?
**A.** The value was 40%.

**Q.** And the “observed activity in % destruction” value ([2]; 20 DAT)?
**A.** Its value is 80%.

**Q.** What about the “observed activity in % destruction” value ([3]; 3.75 g ai/ha, 8 DAT) of the same compound?
**A.** The value was 30%.

**Q.** What about the “observed activity in % destruction” value ([3]; 3.75 g ai/ha, 20 DAT) of the same compound?
**A.** Its value is 55%.

**Q.** What about the “observed activity in % destruction” value ([3]; 7.5 g ai/ha, 8 DAT) of the same compound?
**A.** Its value is 50%.

**Q.** And the “observed activity in % destruction” value ([3]; 7.5 g ai/ha, 20 DAT)?
**A.** The value was 75%.

**Q.** And the “observed activity in % destruction” value ([3]; 15 g ai/ha, 8 DAT)?
**A.** Its value is 50%.

**Q.** And the “observed activity in % destruction” value ([3]; 15 g ai/ha, 20 DAT)?
**A.** The value was 90%.

**Q.** And the “observed % destruction 20 DAT” value ([4]; BRAPL pre-emergence 15 g ai/ha)?
**A.** Its value is 85%.

**Q.** What about the “observed activity in % destruction” value ([4]; 8 DAT) of the same compound?
**A.** The value was 30%.

**Q.** What about the “observed activity in % destruction” value ([4]; 20 DAT) of the same compound?
**A.** The value was 85%.

**Q.** And the “observed % destruction 20 DAT” value ([5]; COMBE pre-emergence 3.75 g ai/ha)?
**A.** The value was 30%.

**Q.** What about the “observed % destruction 20 DAT” value ([5]; COMBE pre-emergence 7.5 g ai/ha) of the same compound?
**A.** Its value is 40%.

**Q.** And the “observed activity in % destruction” value ([5]; 3.75 g ai/ha, 8 DAT)?
**A.** The value was 0%.

**Q.** What about the “observed activity in % destruction” value ([5]; 3.75 g ai/ha, 20 DAT) of the same compound?
**A.** Its value is 30%.

**Q.** What about the “observed activity in % destruction” value ([5]; 7.5 g ai/ha, 8 DAT) of the same compound?
**A.** Its value is 20%.

**Q.** What about the “observed activity in % destruction” value ([5]; 7.5 g ai/ha, 20 DAT) of the same compound?
**A.** The value was 40%.

**Q.** And the “observed % destruction 20 DAT” value ([6]; ECHCG pre-emergence 7.5 g ai/ha)?
**A.** The value was 60%.

**Q.** And the “observed % destruction 20 DAT” value ([6]; ECHCG pre-emergence 15 g ai/ha)?
**A.** The value was 90%.

**Q.** What about the “observed activity in % destruction” value ([6]; 7.5 g ai/ha, 8 DAT) of the same compound?
**A.** Its value is 30%.

**Q.** What about the “observed activity in % destruction” value ([6]; 7.5 g ai/ha, 20 DAT) of the same compound?
**A.** The value was 60%.

**Q.** What about the “observed activity in % destruction” value ([6]; 15 g ai/ha, 8 DAT) of the same compound?
**A.** The value was 65%.

**Q.** What about the “observed activity in % destruction” value ([6]; 15 g ai/ha, 20 DAT) of the same compound?
**A.** Its value is 90%.

**Q.** And the “observed % destruction 20 DAT” value [7]?
**A.** Its value is 65%.

**Q.** And the “observed % destruction 20 DAT” value ([8]; LOLMU pre-emergence 3.75 g ai/ha)?
**A.** Its value is 40%.

**Q.** What about the “observed % destruction 20 DAT” value ([8]; LOLMU pre-emergence 7.5 g ai/ha) of the same compound?
**A.** The value was 45%.

**Q.** What about the “observed % destruction 20 DAT” value ([8]; LOLMU pre-emergence 15 g ai/ha) of the same compound?
**A.** Its value is 65%.

**Q.** And the “observed activity in % destruction” value ([8]; 3.75 g ai/ha, 8 DAT)?
**A.** Its value is 0%.

**Q.** And the “observed activity in % destruction” value ([8]; 3.75 g ai/ha, 20 DAT)?
**A.** Its value is 40%.

**Q.** What about the “observed activity in % destruction” value ([8]; 7.5 g ai/ha, 8 DAT) of the same compound?
**A.** Its value is 0%.

**Q.** What about the “observed activity in % destruction” value ([8]; 7.5 g ai/ha, 20 DAT) of the same compound?
**A.** The value was 45%.

**Q.** What about the “observed activity in % destruction” value ([8]; 15 g ai/ha, 8 DAT) of the same compound?
**A.** The value was 30%.

**Q.** And the “observed activity in % destruction” value ([8]; 15 g ai/ha, 20 DAT)?
**A.** Its value is 65%.

**Q.** What about the “observed activity in % destruction” value ([9]; 3.75 g ai/ha, 8 DAT) of the same compound?
**A.** Its value is 0%.

**Q.** And the “observed activity in % destruction” value ([9]; 3.75 g ai/ha, 20 DAT)?
**A.** Its value is 80%.

**Q.** And the “observed activity in % destruction” value ([9]; 7.5 g ai/ha, 8 DAT)?
**A.** Its value is 30%.

**Q.** And the “observed activity in % destruction” value ([9]; 7.5 g ai/ha, 20 DAT)?
**A.** Its value is 90%.

**Q.** What about the “observed activity in % destruction” value ([9]; 15 g ai/ha, 8 DAT) of the same compound?
**A.** Its value is 50%.

**Q.** And the “observed activity in % destruction” value ([9]; 15 g ai/ha, 20 DAT)?
**A.** Its value is 95%.

**Q.** What about the “observed % destruction 20 DAT” value ([10]; PHBPU pre-emergence 3.75 g ai/ha) of the same compound?
**A.** The value was 25%.

**Q.** And the “observed activity in % destruction” value ([10]; 8 DAT)?
**A.** Its value is 30%.

**Q.** What about the “observed activity in % destruction” value ([10]; 20 DAT) of the same compound?
**A.** Its value is 25%.

**Q.** What about the “observed % destruction 20 DAT” value ([11]; SETVI pre-emergence 3.75 g ai/ha) of the same compound?
**A.** The value was 75%.

**Q.** And the “observed % destruction 20 DAT” value ([11]; SETVI pre-emergence 7.5 g ai/ha)?
**A.** Its value is 90%.

**Q.** What about the “observed % destruction 20 DAT” value ([11]; SETVI pre-emergence 15 g ai/ha) of the same compound?
**A.** Its value is 95%.

**Q.** And the “observed % destruction 20 DAT” value ([12]; SOLNI pre-emergence 3.75 g ai/ha)?
**A.** Its value is 70%.

**Q.** What about the “observed % destruction 20 DAT” value ([12]; SOLNI pre-emergence 7.5 g ai/ha) of the same compound?
**A.** The value was 85%.

**Q.** What about the “observed % destruction 20 DAT” value ([12]; SOLNI pre-emergence 15 g ai/ha) of the same compound?
**A.** Its value is 90%.

**Q.** And the “observed activity in % destruction” value ([12]; 3.75 g ai/ha, 8 DAT)?
**A.** The value was 20%.

**Q.** What about the “observed activity in % destruction” value ([12]; 3.75 g ai/ha, 20 DAT) of the same compound?
**A.** Its value is 70%.

**Q.** What about the “observed activity in % destruction” value ([12]; 7.5 g ai/ha, 8 DAT) of the same compound?
**A.** Its value is 40%.

**Q.** And the “observed activity in % destruction” value ([12]; 7.5 g ai/ha, 20 DAT)?
**A.** The value was 85%.

**Q.** What about the “observed activity in % destruction” value ([12]; 15 g ai/ha, 8 DAT) of the same compound?
**A.** Its value is 50%.

**Q.** What about the “observed activity in % destruction” value ([12]; 15 g ai/ha, 20 DAT) of the same compound?
**A.** The value was 90%.

**Q.** What about the “observed activity in % destruction” value ([13]; 8 DAT) of the same compound?
**A.** Its value is 35%.

**Q.** What about the “observed activity in % destruction” value ([13]; 20 DAT) of the same compound?
**A.** The value was 30%.

**Q.** And the “observed activity in % destruction” value ([14]; 8 DAT)?
**A.** Its value is 20%.

**Q.** And the “observed activity in % destruction” value ([14]; 20 DAT)?
**A.** Its value is 30%.

**Q.** And the “observed activity in % destruction” value ([15]; 8 DAT)?
**A.** Its value is 20%.

**Q.** And the “observed activity in % destruction” value ([15]; 20 DAT)?
**A.** The value was 0%.
